Reference: patent US20060069132A1, “Azolecarboxamide herbicides” (priority 2004, published 2006)

How the values were obtained:
barnyardgrass [1] = assay: Test A pre-/postemergence herbicide test; type: in vivo, Echinochloa crus-galli
Method in brief: (§1)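 Seeds sown in sandy loam received a preemergence directed soil spray of compound in non-phytotoxic solvent with surfactant; postemergence plants (2–10 cm, one- to two-leaf stage) were sprayed to runoff at the same time. After ~10 days in greenhouse, injury was rated visually versus untreated controls (0 = no effect, 100 = complete control).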

large crabgrass [2] = assay: Test A pre-/postemergence herbicide test; type: in vivo, Digitaria sanguinalis
Method in brief: as §1

giant foxtail [3] = assay: Test A pre-/postemergence herbicide test; type: in vivo, Setaria faberi
Method in brief: as §1

morningglory [4] = assay: Test A pre-/postemergence herbicide test; type: in vivo, Ipomoea spp.
Method in brief: as §1

redroot pigweed = assay: Test A pre-/postemergence herbicide test; type: in vivo, Amaranthus retroflexus
Method in brief: as §1

velvetleaf [5] = assay: Test A pre-/postemergence herbicide test; type: in vivo, Abutilon theophrasti
Method in brief: as §1

barnyardgrass [6] = assay: Test B pre-/postemergence herbicide test; type: in vivo, Echinochloa crus-galli; conditions: for Plant response rating, Barnyardgrass: preemergence; for Barnyardgrass plant response rating: postemergence, visual rating, scale 0 (no effect) to 100 (complete control)
Method in brief: (§2)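 Seeds were planted and treated preemergence with compounds formulated in a non-phytotoxic solvent mixture containing surfactant, while plants at the 1- to 4-leaf stage (2 to 18 cm) received postemergence sprays. Flooded paddy plants were grown to the 2-leaf stage. After 13 to 15 days in a greenhouse, injury was visually rated 0–100 against untreated controls.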

Surinam grass = assay: Test B pre-/postemergence herbicide test; type: in vivo, Urochloa decumbens; conditions: for Plant response rating, Surinam Grass: preemergence; for Surinam Grass plant response rating: postemergence, visual rating, scale 0 (no effect) to 100 (complete control)
Method in brief: (§3)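 Formulation: non-phytotoxic solvent mix with surfactant. Timing: preemergence on seed and postemergence on 2–18 cm plants, applied concurrently. Readout after 13–15 d greenhouse: visual 0–100 control rating against controls.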

cocklebur = assay: Test B pre-/postemergence herbicide test; type: in vivo, Xanthium strumarium; conditions: for Plant response rating, Cocklebur: preemergence; for Cocklebur plant response rating: postemergence, visual rating, scale 0 (no effect) to 100 (complete control)
Method in brief: as §2

corn = assay: Test B pre-/postemergence herbicide test; type: in vivo, Zea mays; conditions: for Plant response rating, Corn: preemergence; for Corn plant response rating: postemergence, visual rating, scale 0 (no effect) to 100 (complete control)
Method in brief: as §3

large crabgrass [7] = assay: Test B pre-/postemergence herbicide test; type: in vivo, Digitaria sanguinalis; conditions: for Plant response rating, Crabgrass, Large: preemergence; for Crabgrass, Large plant response rating: postemergence, visual rating, scale 0 (no effect) to 100 (complete control)
Method in brief: as §3

giant foxtail [8] = assay: Test B pre-/postemergence herbicide test; type: in vivo, Setaria faberi; conditions: for Plant response rating, Foxtail, Giant: preemergence; for Foxtail, Giant plant response rating: postemergence, visual rating, scale 0 (no effect) to 100 (complete control)
Method in brief: as §3

lambsquarters = assay: Test B pre-/postemergence herbicide test; type: in vivo, Chenopodium album; conditions: for Plant response rating, Lambsquarters: preemergence; for Lambsquarters plant response rating: postemergence, visual rating, scale 0 (no effect) to 100 (complete control)
Method in brief: as §3

morningglory [9] = assay: Test B pre-/postemergence herbicide test; type: in vivo, Ipomoea coccinea; conditions: for Morningglory plant response rating: postemergence, visual rating, scale 0 (no effect) to 100 (complete control)
Method in brief: as §2

pigweed = assay: Test B pre-/postemergence herbicide test; type: in vivo, Amaranthus retroflexus; conditions: for Plant response rating, Pigweed: preemergence; for Pigweed plant response rating: postemergence, visual rating, scale 0 (no effect) to 100 (complete control)
Method in brief: as §3

velvetleaf [10] = assay: Test B pre-/postemergence herbicide test; type: in vivo, Abutilon theophrasti; conditions: for Plant response rating, Velvetleaf: preemergence; for Velvetleaf plant response rating: postemergence, visual rating, scale 0 (no effect) to 100 (complete control)
Method in brief: as §3

blackgrass = assay: Test B postemergence herbicide test; type: in vivo, Alopecurus myosuroides; conditions: postemergence, visual rating, scale 0 (no effect) to 100 (complete control)
Method in brief: (§4)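 Postemergence plants were sprayed with formulated test chemicals at 2 to 18 cm height (1- to 4-leaf stage); paddy species were grown to the 2-leaf stage. After 13 to 15 days in a greenhouse, injury was rated visually against untreated controls on a 0–100 scale (0 = no effect, 100 = complete control).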

wheat = assay: Test B postemergence herbicide test; type: in vivo, Triticum aestivum; parameters: key to Wheat plant response rating: 0 = no effect, 100 = complete control; conditions: postemergence, visual rating, scale 0 (no effect) to 100 (complete control)
Method in brief: (§5)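 Scale 0–100: zero equals no visible effect, 100 complete control, judged by eye relative to controls. Timing: 13 to 15 days in greenhouse post-treatment. Growth stage at spraying: two leaves (paddy) or one to four leaves, 2–18 cm (postemergence).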

wild oat = assay: Test B postemergence herbicide test; type: in vivo, Avena fatua; conditions: postemergence, visual rating, scale 0 (no effect) to 100 (complete control)
Method in brief: as §5

rice = assay: Test B flooded paddy test; type: in vivo, Oryza sativa; conditions: 1000 g ai/ha, visual rating, scale 0 to 100 (0 no effect, 100 complete control), 13 to 15 days
Method in brief: as §5

[11] = test system: small flower umbrella sedge; assay: Test B flooded paddy test; type: in vivo, Cyperus difformis; conditions: 1000 g ai/ha, visual rating, scale 0 to 100 (0 no effect, 100 complete control), 13 to 15 days
Method in brief: as §4

ducksalad = assay: Test B flooded paddy test; type: in vivo, Heteranthera limosa; conditions: 1000 g ai/ha, visual rating, scale 0 to 100 (0 no effect, 100 complete control), 13 to 15 days
Method in brief: as §4

barnyardgrass [12] = assay: Test B flooded paddy test; type: in vivo, Echinochloa crus-galli; conditions: 1000 g ai/ha, visual rating, scale 0 to 100 (0 no effect, 100 complete control), 13 to 15 days
Method in brief: as §4

[13] = Postemergence, 500 g ai/ha, 0 to 100 scale, 0 no effect, 100 complete control
[14] = Postemergence, 2000 g ai/ha, 0 to 100 scale, 0 no effect, 100 complete control
[15] = Preemergence, 500 g ai/ha, visual rating, 0 to 100 scale (0 no effect, 100 complete control)
[16] = Preemergence, 2000 g ai/ha, visual rating, 0 to 100 scale (0 no effect, 100 complete control)
[17] = preemergence, 500 g ai/ha, visual injury, 0 to 100 scale (0 no effect, 100 complete control)
[18] = 500 g ai/ha, visual rating 0-100, 0 no effect, 100 complete control
[19] = 125 g ai/ha, 0 to 100 scale, 0 is no effect, 100 is complete control

CCCCNS(=O)(=O)c1cccc(NC(=O)c2cc(C(C)(C)C)nn2C)c1 [Compound 125]
10: Surinam Grass plant response rating (Surinam grass; 500 g ai/ha)
20: Pigweed plant response rating (redroot pigweed; [13]) | Plant response rating, Pigweed (redroot pigweed; [14]) | Lambsquarters plant response rating (lambsquarters; 500 g ai/ha)
0: Barnyardgrass plant response rating (barnyardgrass [1]; [13]) | Plant response rating, Barnyardgrass (barnyardgrass [1]; [14]) | Barnyardgrass plant response rating (barnyardgrass [1]; [15]) | Barnyardgrass plant response rating (barnyardgrass [1]; [16]) | Crabgrass, Large plant response rating (large crabgrass [2]; [13]) | Plant response rating, Crabgrass, Large (large crabgrass [2]; [14]) | Crabgrass, Large plant response rating (large crabgrass [2]; [15]) | Crabgrass, Large plant response rating (large crabgrass [2]; [16]) | Foxtail, Giant plant response rating (giant foxtail [3]; [13]) | Plant response rating, Foxtail, Giant (giant foxtail [3]; [14]) | Foxtail, Giant plant response rating (giant foxtail [3]; [15]) | Foxtail, Giant plant response rating (giant foxtail [3]; [16]) | Morningglory plant response rating (morningglory [4]; [13]) | Plant response rating, Morningglory (morningglory [4]; [14]) | Morningglory plant response rating (morningglory [4]; [15]) | Morningglory plant response rating (morningglory [4]; [16]) | Pigweed plant response rating (redroot pigweed; [16]) | Pigweed plant response rating (redroot pigweed; [17]) | Velvetleaf plant response rating (velvetleaf [5]; [13]) | Plant response rating, Velvetleaf (velvetleaf [5]; [14]) | Velvetleaf plant response rating (velvetleaf [5]; [16]) | Velvetleaf plant response rating (velvetleaf [5]; [17]) | Plant response rating, Barnyardgrass (barnyardgrass [6]; [18]) | Barnyardgrass plant response rating (barnyardgrass [6]; 125 g ai/ha) | Barnyardgrass plant response rating (barnyardgrass [6]; 500 g ai/ha) | Plant response rating, Barnyardgrass (barnyardgrass [6]; [19]) | Plant response rating, Surinam Grass (Surinam grass; [18]) | Surinam Grass plant response rating (Surinam grass; 125 g ai/ha) | Plant response rating, Surinam Grass (Surinam grass; [19]) | Plant response rating, Cocklebur (cocklebur; [18]) | Cocklebur plant response rating (cocklebur; 125 g ai/ha) | Cocklebur plant response rating (cocklebur; 500 g ai/ha) | Plant response rating, Cocklebur (cocklebur; [19]) | Plant response rating, Corn (corn; [18]) | Corn plant response rating (corn; 125 g ai/ha) | Corn plant response rating (corn; 500 g ai/ha) | Plant response rating, Corn (corn; [19]) | Plant response rating, Crabgrass, Large (large crabgrass [7]; [18]) | Crabgrass, Large plant response rating (large crabgrass [7]; 125 g ai/ha) | Crabgrass, Large plant response rating (large crabgrass [7]; 500 g ai/ha) | Plant response rating, Crabgrass, Large (large crabgrass [7]; [19]) | Plant response rating, Foxtail, Giant (giant foxtail [8]; [18]) | Foxtail, Giant plant response rating (giant foxtail [8]; 125 g ai/ha) | Foxtail, Giant plant response rating (giant foxtail [8]; 500 g ai/ha) | Plant response rating, Foxtail, Giant (giant foxtail [8]; [19]) | Plant response rating, Lambsquarters (lambsquarters; [18]) | Lambsquarters plant response rating (lambsquarters; 125 g ai/ha) | Plant response rating, Lambsquarters (lambsquarters; [19]) | Morningglory plant response rating (morningglory [9]; 125 g ai/ha) | Morningglory plant response rating (morningglory [9]; 500 g ai/ha) | Plant response rating, Morningglory (morningglory [9]; preemergence, 125 g ai/ha, 0 to 100 scale, 0 is no effect, 100 is complete control) | Plant response rating, Pigweed (pigweed; [18]) | Pigweed plant response rating (pigweed; 125 g ai/ha) | Pigweed plant response rating (pigweed; 500 g ai/ha) | Plant response rating, Pigweed (pigweed; [19]) | Plant response rating, Velvetleaf (velvetleaf [10]; [18]) | Velvetleaf plant response rating (velvetleaf [10]; 125 g ai/ha) | Velvetleaf plant response rating (velvetleaf [10]; 500 g ai/ha) | Plant response rating, Velvetleaf (velvetleaf [10]; [19]) | Blackgrass plant response rating (blackgrass; 125 g ai/ha) | Blackgrass plant response rating (blackgrass; 500 g ai/ha) | Wheat plant response rating (wheat; 125 g ai/ha) | Wheat plant response rating (wheat; 500 g ai/ha) | Oat, Wild plant response rating (wild oat; 125 g ai/ha) | Oat, Wild plant response rating (wild oat; 500 g ai/ha) | Rice plant response rating (rice) | Sedge, Umbrella plant response rating [11] | Ducksalad plant response rating (ducksalad) | Barnyardgrass plant response rating (barnyardgrass [12])
